# Assays:
# Type in all cases: in vivo, human
# men and women with OAB = assay: Phase 2b study of vibegron in OAB, Part 1, efficacy at Week 8 (voiding diary)
# From the text: Part 2 was designed to continue to assess the safety and efficacy of concomitant dosing. […] Subjects in both Part 1 and Part 2 had the option of enrolling in a 1-year extension. Participants were required to keep a voiding diary, recording the occurrence of each strong urge, total incontinence, and urge incontinence episode. Efficacy data for Part 1 and Part 2 are summarized herein.
# The total number of urgency incontinence episodes must have exceeded the total number of stress incontinence episodes for all subjects.
# [1] = Phase 2b study, vital sign (HR, SBP, DBP) changes and orthostatic AEs
# From the text: None led to discontinuation. The overall incidence of orthostatic symptoms was low.
# Small differences in the percent of subjects exceeding categorical heart rate and blood pressure thresholds for vibegron were similar to those in the tolterodine arm.
# [2] = test system: men and women with overactive bladder; assay: 40-week extension study (52 weeks), efficacy; conditions: for UUI Episodes 75% Responders at Week 52 / UUI Episodes 100% Responders at Week 52 / Urgency Episodes 50% Responders at Week 52: multiple imputation
# From the text: All CFB calculations used the parent study Baseline value.
# [3] = vibegron 50 mg, OAB Wet subjects
# [4] = vibegron 100 mg, OAB Wet subjects
# [5] = 40-Week treatment group, Full Analysis Set Extension
# [6] = 52-Week treatment group, Full Analysis Set Extension
smiles,measurement,setting,value
"O=C(Nc1ccc(C[C@@H]2CC[C@H]([C@H](O)c3ccccc3)N2)cc1)[C@@H]1CCc2nccc(=O)n21 [Vibegron, (6S)-N-[4-[[(2S,5R)−5-[(R)-hydroxy(phenyl)methyl]pyrrolidin−2-yl]methyl]phenyl]−4-oxo−7,8-dihydro−6H-pyrrolo[1,2-a]pyrimidine−6-carboxamide]","Urgency incontinence episodes: adjusted difference from placebo at Week 8, difference in LS means (MMRM)",men and women with OAB; [3],−0.7
same,"Urgency incontinence episodes: change from baseline at Week 8, mean",men and women with OAB; [3],−1.90
same,"Urgency incontinence episodes: daily number of events, Week 8 mean",men and women with OAB; [3],0.86
same,"Urgency incontinence episodes: difference from placebo at Week 8, difference in LS means (cLDA)",men and women with OAB; [3],−0.72
same,"Micturitions: adjusted difference from placebo at Week 8, difference in LS means (MMRM)",men and women with OAB; vibegron 100 mg,−0.9
same,"Micturitions: difference from placebo at Week 8, difference in LS means (cLDA)",men and women with OAB; vibegron 100 mg,−0.91
same,"Urgency episodes: adjusted difference from placebo at Week 8, difference in LS means (MMRM)",men and women with OAB; vibegron 100 mg,−1.3
same,"Micturitions, change from baseline at week 8, difference in LS means 100 mg − 50 mg",men and women with OAB; vibegron 100 mg vs 50 mg,−0.27
same,"Total incontinence episodes, change from baseline at week 8, difference in LS means 100 mg − 50 mg",men and women with OAB; vibegron 100 mg vs 50 mg,0.02
same,"Urgency episodes, change from baseline at week 8, difference in LS means 100 mg − 50 mg",men and women with OAB; vibegron 100 mg vs 50 mg,−0.48
same,"Urgency incontinence episodes, change from baseline at week 8, difference in LS means 100 mg − 50 mg",men and women with OAB; vibegron 100 mg vs 50 mg,0.01
same,"Total incontinence episodes: adjusted difference from placebo at Week 8, difference in LS means (MMRM)",men and women with OAB; [4],−0.6
same,"Total incontinence episodes: difference from placebo at Week 8, difference in LS means (cLDA)",men and women with OAB; [4],−0.58
same,"Urgency incontinence episodes: adjusted difference from placebo at Week 8, difference in LS means (MMRM)",men and women with OAB; [4],−0.7
same,"Urgency incontinence episodes: daily number of events, Week 8 mean",men and women with OAB; [4],0.84
same,"Urgency incontinence episodes: difference from placebo at Week 8, difference in LS means (cLDA)",men and women with OAB; [4],−0.71
same,"DBP change from baseline, mean (95% CI) maximum, week 1 to 8",[1]; vibegron 3 mg,"5.03 (3.92, 6.15) mm Hg"
same,"DBP change from baseline, mean (95% CI), week 1",[1]; vibegron 3 mg,"−0.37 (−1.69, 0.95) mm Hg"
same,"HR change from baseline, mean (95% CI) maximum, week 1 to 8",[1]; vibegron 3 mg,"5.57 (4.25, 6.90) bpm"
same,"HR change from baseline, mean (95% CI), week 1",[1]; vibegron 3 mg,"0.36 (−0.90, 1.62) bpm"
same,"SBP change from baseline, mean (95% CI) maximum, week 1 to 8",[1]; vibegron 3 mg,"7.14 (5.18, 9.10) mm Hg"
same,"SBP change from baseline, mean (95% CI), week 1",[1]; vibegron 3 mg,"−0.35 (−2.34, 1.65) mm Hg"
same,"DBP change from baseline, mean (95% CI) maximum, week 1 to 8",[1]; vibegron 15 mg,"6.37 (5.20, 7.53) mm Hg"
same,"DBP change from baseline, mean (95% CI), week 1",[1]; vibegron 15 mg,"0.03 (−1.52, 1.59) mm Hg"
same,"HR change from baseline, mean (95% CI) maximum, week 1 to 8",[1]; vibegron 15 mg,"6.56 (5.20, 7.92) bpm"
same,"HR change from baseline, mean (95% CI), week 1",[1]; vibegron 15 mg,"0.35 (−1.15, 1.85) bpm"
same,"SBP change from baseline, mean (95% CI) maximum, week 1 to 8",[1]; vibegron 15 mg,"8.93 (7.18, 10.67) mm Hg"
same,"SBP change from baseline, mean (95% CI), week 1",[1]; vibegron 15 mg,"−0.34 (−2.46, 1.78) mm Hg"
same,subjects with orthostatic related AEs,[1]; vibegron 15 mg,0.3%
same,"DBP change from baseline, mean (95% CI) maximum, week 1 to 8",[1]; vibegron 50 mg,"4.19 (3.10, 5.29) mm Hg"
same,"DBP change from baseline, mean (95% CI), week 1",[1]; vibegron 50 mg,"−0.70 (−2.07, 0.67) mm Hg"
same,"HR change from baseline, mean (95% CI) maximum, week 1 to 8",[1]; vibegron 50 mg,"5.49 (4.28, 6.69) bpm"
same,"HR change from baseline, mean (95% CI), week 1",[1]; vibegron 50 mg,"0.29 (−0.88, 1.46) bpm"
same,"SBP change from baseline, mean (95% CI) maximum, week 1 to 8",[1]; vibegron 50 mg,"7.01 (5.31, 8.70) mm Hg"
same,"SBP change from baseline, mean (95% CI), week 1",[1]; vibegron 50 mg,"−0.79 (−2.65, 1.08) mm Hg"
same,"SBP and DBP, difference between placebo and vibegron in mean changes at Week 1 and mean maximum changes over 8 weeks",[1]; vibegron 50 mg and 100 mg,< 1 mm Hg
same,"DBP change from baseline, mean (95% CI) maximum, week 1 to 8",[1]; vibegron 100 mg,"4.80 (3.88, 5.72) mm Hg"
same,"DBP change from baseline, mean (95% CI), week 1",[1]; vibegron 100 mg,"−0.69 (−1.72, 0.34) mm Hg"
same,"HR change from baseline, mean (95% CI) maximum, week 1 to 8",[1]; vibegron 100 mg,"6.12 (5.10, 7.15) bpm"
same,"HR change from baseline, mean (95% CI), week 1",[1]; vibegron 100 mg,"0.35 (−0.69, 1.38) bpm"
same,"SBP change from baseline, mean (95% CI) maximum, week 1 to 8",[1]; vibegron 100 mg,"6.51 (5.09, 7.93) mm Hg"
same,"SBP change from baseline, mean (95% CI), week 1",[1]; vibegron 100 mg,"−0.77 (−2.22, 0.68) mm Hg"
same,percent of subjects with a change from baseline in DBP >15 mmHg,[1]; vibegron 100 mg,1.3%
same,subjects with orthostatic related AEs,[1]; vibegron 100 mg,1.1%
same,"HR, mean maximum changes over 8 weeks, difference to placebo","[1]; vibegron, all doses",< 2 bpm
same,"Micturitions, Change from Baseline at Week 52, Mean",[2]; 40-Week arm,−3.1
same,"UUI Episodes, Change from Baseline at Week 52, Mean",[2]; 40-Week arm,−2.3
same,"UUI Episodes, Week 52 Mean",[2]; 40-Week arm,1.2
same,"Urgency Episodes, Change from Baseline at Week 52, Mean",[2]; 40-Week arm,−4.0
same,"Urgency Episodes, Week 52 Mean",[2]; 40-Week arm,4.7
same,"Micturitions, Week 52 Mean","[2]; 40-Week arm, Full Analysis Set Extension",9.3
same,"Total urinary incontinence episodes, Change from Baseline Mean at Week 52",[2]; [5],−2.5
same,"Total urinary incontinence episodes, Week 52 Mean",[2]; [5],1.8
same,UUI Episodes 75% Responders at Week 52,[2]; 40-Week treatment group,58.7%
same,UUI Episodes 100% Responders at Week 52,[2]; 40-Week treatment group,42.1%
same,Urgency Episodes 50% Responders at Week 52,[2]; 40-Week treatment group,51.4%
same,"Micturitions, Change from Baseline at Week 52, Mean",[2]; 52-Week arm,−2.5
same,"UUI Episodes, Change from Baseline at Week 52, Mean",[2]; 52-Week arm,−2.2
same,"UUI Episodes, Week 52 Mean",[2]; 52-Week arm,1.0
same,"Urgency Episodes, Change from Baseline at Week 52, Mean",[2]; 52-Week arm,−3.4
same,"Urgency Episodes, Week 52 Mean",[2]; 52-Week arm,4.5
same,"Micturitions, Week 52 Mean","[2]; 52-Week arm, Full Analysis Set Extension",8.7
same,"Total urinary incontinence episodes, Change from Baseline Mean at Week 52",[2]; [6],−2.5
same,"Total urinary incontinence episodes, Week 52 Mean",[2]; [6],1.2
same,UUI Episodes 75% Responders at Week 52,[2]; 52-Week treatment group,61.0%
same,UUI Episodes 100% Responders at Week 52,[2]; 52-Week treatment group,40.8%
same,Urgency Episodes 50% Responders at Week 52,[2]; 52-Week treatment group,49.4%
same,"UUI Episodes, Change from Baseline LS Mean (SE) at Week 52","[2]; 52-Weeks arm, Full Analysis Set Extension for Incontinence",−2.2 (0.15)
same,"Micturitions, Change from Baseline LS Mean (SE) at Week 52","[2]; 52-Weeks arm, mixed model for repeated measures",−2.4 (0.24)
same,"Urgency episodes, Change from Baseline LS Mean (SE) at Week 52","[2]; 52-Weeks treatment, Full Analysis Set Extension",−3.4 (0.34)
same,"Total urinary incontinence episodes, Change from Baseline LS Mean (SE) at Week 52","[2]; 52-Weeks treatment, Full Analysis Set Extension for Incontinence",−2.5 (0.17)
same,"% Responders, 50% Reduction in Total Inc at Week 52","[2]; 52-week treatment, Table 97",71%
same,"% Responders, 50% Reduction in UE at Week 52","[2]; 52-week treatment, Table 97",49%
same,"% Responders, 75% Reduction in UUI at Week 52","[2]; 52-week treatment, Table 97",61%
same,"% Responders, 100% Reduction in UUI at Week 52","[2]; 52-week treatment, Table 97",41%
same,"Micturitions, Least Squares Means CFB at Week 52","[2]; 52-week treatment, Table 97",−2.4
same,"Total Incontinence Episodes, Least Squares Means CFB at Week 52","[2]; 52-week treatment, Table 97",−2.5
same,"UUI Episodes, Least Squares Means CFB at Week 52","[2]; 52-week treatment, Table 97",−2.2
same,"Urgency Episodes (UE), Least Squares Means CFB at Week 52","[2]; 52-week treatment, Table 97",−3.4
same,"Volume Voided, mean change from baseline at Week 52","[2]; 52-week treatment, Table 97",26 mL

# — patent US20230027066A1 (Urovant Sciences GmbH, priority 2019, published 2023)
